According to patent US7268152B2, “Glucocorticoid mimetics, methods of making them, pharmaceutical compositions, and uses thereof” (Boehringer Ingelheim Pharmaceuticals, Inc., priority 2002, dated 2007):

What was measured:
[1] = molecular target: T1, human glucocorticoid receptor (GR) complex (Homo sapiens, UniProt P04150); assay: Glucocorticoid receptor competitive binding assay (fluorescence polarization); settings: competition with TAMRA-labeled dexamethasone
T1 construct: made in house; host or cells: insect expression system (baculovirus lysate)
T1 sequence (P04150 1-777): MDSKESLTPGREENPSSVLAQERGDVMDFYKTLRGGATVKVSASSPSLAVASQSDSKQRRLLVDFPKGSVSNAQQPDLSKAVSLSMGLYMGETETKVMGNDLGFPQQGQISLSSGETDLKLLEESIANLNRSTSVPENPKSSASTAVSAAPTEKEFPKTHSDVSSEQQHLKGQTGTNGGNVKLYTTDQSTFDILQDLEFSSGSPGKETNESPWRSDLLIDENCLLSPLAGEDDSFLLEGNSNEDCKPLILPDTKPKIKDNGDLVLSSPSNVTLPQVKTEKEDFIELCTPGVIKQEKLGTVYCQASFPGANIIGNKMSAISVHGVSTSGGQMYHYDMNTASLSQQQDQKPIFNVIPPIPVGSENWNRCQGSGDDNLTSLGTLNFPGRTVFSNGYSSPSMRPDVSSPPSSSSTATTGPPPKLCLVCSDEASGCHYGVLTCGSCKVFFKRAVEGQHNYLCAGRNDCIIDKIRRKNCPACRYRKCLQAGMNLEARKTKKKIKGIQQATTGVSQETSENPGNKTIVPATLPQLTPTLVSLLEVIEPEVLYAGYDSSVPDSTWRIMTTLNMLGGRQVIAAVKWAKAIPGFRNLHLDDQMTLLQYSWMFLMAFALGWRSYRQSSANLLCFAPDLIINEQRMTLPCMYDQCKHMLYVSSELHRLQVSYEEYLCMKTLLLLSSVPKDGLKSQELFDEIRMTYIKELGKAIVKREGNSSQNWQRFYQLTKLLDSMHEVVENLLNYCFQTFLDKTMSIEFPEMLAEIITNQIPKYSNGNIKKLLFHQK
Procedure, shortened: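 FP competition against 15 nM TAMRA-labeled dexamethasone (stock added) for GR complex in baculovirus insect-cell lysate, buffer 10 mM TES, 50 mM KCl, 20 mM molybdate, pH 7.4 with 1 mM DTT. Incubated 1 h at room temperature, read at ex 550/em 580 nm; IC50 from 4-parameter logistic fit.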

[2] = tested on: glucocorticoid receptor; assay: One or more of the above assays (GR binding and GR cell assays; not specified which); format: cell-based; settings: in one or more of the above assays
Description: This assay uses fluorescence polarization (FP) to quantitate the ability of test compounds to compete with tetramethyl rhodamine (TAMRA)-labeled dexamethasone for binding to a human glucocorticoid receptor (GR) complex prepared from an insect expression system. The assay buffer was: 10 mM TES, 50 mM KCl, 20 mM Na2MoO4.2H2O, 1.5 mM EDTA, 0.04% w/v CHAPS, 10% v/v glycerol, 1 mM dithiothreitol, pH 7.4. Test compounds were dissolved to 1 mM in neat DMSO and then further diluted to 10×assay concentration in assay buffer supplemented with 10% v/v DMSO. Test compounds were serially diluted at 10×assay concentrations in 10% DMSO-containing buffer in 96-well polypropylene plates. […] Positive controls were reaction mixtures containing no test compound; negative controls (blanks) were reaction mixtures containing 0.7 μM to 2 μM dexamethasone. […] IC50 values were determined by iterative non-linear curve fitting of the FP signal data to a 4-parameter logistic equation.
B. Glucocorticoid Receptor Cell Assays
1. Induction of Aromatase in Fibroblasts (Cell Assay for Transactivation)
Dexamethasone, a synthetic ligand to the glucocorticoid receptor (GR), induces expression of aromatase in human foreskin fibroblast cells. The activity of aromatase is measured by the conversion of testosterone to estradiol in culture media.
On the day of the experiment, the media in the wells is replaced with fresh media. Cells are treated with test compounds to final concentrations of 10^−5 M to 10 ^−8 M, and testosterone to a final concentration of 300 ng/mL. Each well has a total volume of 100 μL. Samples are made in duplicates. Control wells include: (a) wells that receive testosterone only, and (b) wells that receive testosterone plus 2 μM of dexamethasone to provide maximum induction of aromatase. Plates are incubated at 37° C. overnight (15 to 18 hours), and supernatants are harvested at the end of incubation. […] The amount of estradiol is inversely proportional to the ELISA signals in each well. The extent of aromatase induction by test compounds is expressed as a relative percentage to dexamethasone. EC50 values of test compounds are derived by non-linear curve fitting.
2. Inhibition of IL-6 Production in Fibroblasts (Cell Assay for Transrepression)
Human foreskin fibroblast cells produce IL-6 in response to stimulation by pro-inflammatory cytokine IL-1.
On the next day, media in the wells is replaced with fresh media. Cells are treated with IL-1 (rhIL-1α, R&D Systems Cat. No. 200-LA) to a final concentration of 1 ng/mL, and with test compounds to final concentrations of 10 ^−5 M to 10 ^−8 M, in a total volume of 200 μL per well. Samples are done in duplicates. […] Positive control wells receive IL-1 only and represent maximum (or 100%) amount of IL-6 production. Plates are incubated at 37° C. overnight (15 to 18 hours), and supernatants are harvested at the end of incubation. IL-6 levels in the supernatants are determined by the ELISA kits for IL-6 (MedSystems Diagnostics GmbH, Vienna, Austria, Cat. No. BMS213TEN) according to manufacture's instructions. The extent of inhibition of IL-6 by test compounds is expressed in percentage relative to positive controls. IC50 values of test compounds are derived by non-linear curve fitting.
Evaluation of agonist or antagonist activity of compounds binding to the glucocorticoid receptor may be determined by any of the assays.
3. Modulation of Tyrosine Aminotransferase (TAT) Induction in Rat Hepatoma Cells
Testing of compounds for agonist or antagonist activity in induction of tyrosine aminotransferase (TAT) in rat hepatoma cells.
H4-II-E-C3 cells were incubated overnight in 96 well plates (20,000 cells/100 μL/well) in MEM medium containing 10% heat inactivated FBS and 1% nonessential amino acids. On the next day, cells were stimulated with the indicated concentrations of dexamethasone or test compound (dissolved in DMSO, final DMSO concentration 0.2%) for 18 hours. Control cells were treated with 0.2% DMSO.

Row | SMILES | IC50 [1] | activity as agonists of the glucocorticoid receptor function [2]
1 | COc1ccc(F)cc1C(C)(C)CC(O)(Cc1cc(C(F)(F)F)cc(Cl)c1F)C(F)(F)F (centres unmarked) [2-(3-Chloro-2-fluoro-5-trifluoromethylbenzyl)-1,1,1-trifluoro-4-(5-fluoro-2-methoxyphenyl)-4-methylpentan-2-ol] | ≤ 100 nM | activity as agonists
2 | CC(C)(CC(O)(Cc1ccc(C#N)cc1Cl)C(F)(F)F)c1cccc2c1OCC2 (centres unmarked) [3-Chloro-4-[4-(2,3-dihydrobenzofuran-7-yl)-2-hydroxy-4-methyl-2-trifluoromethylpentyl]benzonitrile] | ≤ 100 nM | activity as agonists
3 | Cc1cc(C)cc(CC(O)(CC(C)(C)c2cccc3c2OCC3)C(F)(F)F)c1 (centres unmarked) [4-(2,3-Dihydrobenzofuran-7-yl)-2-(3,5-dimethylbenzyl)-1,1,1-trifluoro-4-methylpentan-2-ol] | ≤ 100 nM | activity as agonists
4 | CC(C)(CC(O)(Cc1cc(C(F)(F)F)cc(Cl)c1F)C(F)(F)F)c1cc(Br)cc2c1OCC2 (centres unmarked) [4-(5-Bromo-2,3-dihydrobenzofuran-7-yl)-2-(3-chloro-2-fluoro-5-trifluoromethylbenzyl)-1,1,1-trifluoro-4-methylpentan-2-ol] | – | activity as agonists
5 | CC(C)(CC(O)(Cc1ccc(C#N)c2ccccc12)C(F)(F)F)c1cccc2c1OCC2 (centres unmarked) [4-[4-(2,3-Dihydrobenzofuran-7-yl)-2-hydroxy-4-methyl-2-trifluoromethylpentyl]naphthalene-1-carbonitrile] | – | activity as agonists
6 | CC(C)(CC(O)(Cc1ccc(C#N)cc1Cl)C(F)(F)F)c1cc(Br)cc2c1OCC2 (centres unmarked) [4-[4-(5-Bromo-2,3-dihydrobenzofuran-7-yl)-2-hydroxy-4-methyl-2-trifluoromethylpentyl]-3-chlorobenzonitrile] | – | activity as agonists
7 | COc1cc(F)c(Br)cc1C(C)(C)CC(O)(Cc1ccc(C#N)cc1Cl)C(F)(F)F (centres unmarked) [4-[4-(5-Bromo-4-fluoro-2-methoxyphenyl)-2-hydroxy-4-methyl-2-trifluoromethylpentyl]-3-chlorobenzonitrile] | – | activity as agonists
8 | Cc1cc(CC(O)(CC(C)(C)c2cc(F)ccc2O)C(F)(F)F)cc(C)c1C#N (centres unmarked) [4-[4-(5-Fluoro-2-hydroxyphenyl)-2-hydroxy-4-methyl-2-trifluoromethylpentyl]-2,6-dimethylbenzonitrile] | – | activity as agonists
9 | COc1ccc(F)cc1C(C)(C)CC(O)(Cc1cc(C)c(C#N)c(C)c1)C(F)(F)F (centres unmarked) [4-[4-(5-Fluoro-2-methoxyphenyl)-2-hydroxy-4-methyl-2-trifluoromethylpentyl]-2,6-dimethylbenzonitrile] | – | activity as agonists
10 | COc1ccc(F)cc1C(C)(C)CC(O)(Cc1ccc(C#N)c2ccccc12)C(F)(F)F (centres unmarked) [4-[4-(5-Fluoro-2-methoxyphenyl)-2-hydroxy-4-methyl-2-trifluoromethylpentyl]naphthalene-1-carbonitrile] | – | activity as agonists
11 | CC(C)(CC(O)(Cc1ccc(C#N)cc1Cl)C(F)(F)F)c1cc(C#N)cc2c1OCC2 (centres unmarked) [7-[3-(2-Chloro-4-cyanobenzyl)-4,4,4-trifluoro-3-hydroxy-1,1-dimethylbutyl]-2,3-dihydrobenzofuran-5-carbonitrile] | – | activity as agonists
12 | CC(C)(CC(O)(Cc1ccc(C(=O)C2CC2)cc1Cl)C1CC1)c1cccc2c1OCC2 (centres unmarked) [{3-Chloro-4-[2-cyclopropyl-4-(2,3-dihydrobenzofuran-7-yl)-2-hydroxy-4-methylpentyl]phenyl}cyclopropylmethanone] | – | activity as agonists

Further lines, with some results ahead:

Row | IC50 [1] | SMILES | activity as agonists of the glucocorticoid receptor function [2]
13 | ≤ 100 nM | COc1ccc(F)cc1C(C)(C)CC(O)(Cc1cc(Br)cc(Br)c1)C(F)(F)F (centres unmarked) [2-(3,5-Dibromobenzyl)-1,1,1-trifluoro-4-(5-fluoro-2-methoxyphenyl)-4-methylpentan-2-ol] | activity as agonists
14 | ≤ 100 nM | COc1ccc(F)cc1C(C)(C)CC(O)(Cc1cc(C)cc(C)c1)C(F)(F)F (centres unmarked) [2-(3,5-Dimethylbenzyl)-1,1,1-trifluoro-4-(5-fluoro-2-methoxyphenyl)-4-methylpentan-2-ol] | activity as agonists
15 | ≤ 100 nM | COc1ccc(F)cc1C(C)(C)CC(O)(Cc1cc(C)cc(Cl)c1)C(F)(F)F (centres unmarked) [2-(3-Chloro-5-methylbenzyl)-1,1,1-trifluoro-4-(5-fluoro-2-methoxyphenyl)-4-methylpentan-2-ol] | activity as agonists
16 | ≤ 100 nM | COc1ccc(F)cc1C(C)(C)CC(O)(Cc1cc(Br)cc(C)c1F)C(F)(F)F (centres unmarked) [2-(5-Bromo-2-fluoro-3-methylbenzyl)-1,1,1-trifluoro-4-(5-fluoro-2-methoxyphenyl)-4-methylpentan-2-ol] | activity as agonists
17 | ≤ 100 nM | CC(C)(CC(O)(Cc1cc(Br)cc(Br)c1)C(F)(F)F)c1cc(F)ccc1O (centres unmarked) [2-[3-(3,5-Dibromobenzyl)-4,4,4-trifluoro-3-hydroxy-1,1-dimethylbutyl]-4-fluorophenol] | activity as agonists
18 | ≤ 100 nM | Cc1cc(Cl)cc(CC(O)(CC(C)(C)c2cc(F)ccc2O)C(F)(F)F)c1 (centres unmarked) [2-[3-(3-Chloro-5-methylbenzyl)-4,4,4-trifluoro-3-hydroxy-1,1-dimethylbutyl]-4-fluorophenol] | activity as agonists
19 | ≤ 100 nM | COc1ccc(F)cc1C(C)(C)CC(O)(Cc1ccc(C#N)cc1Cl)C(F)(F)F (centres unmarked) [3-Chloro-4-[4-(5-fluoro-2-methoxyphenyl)-2-hydroxy-4-methyl-2-trifluoromethylpentyl]benzonitrile] | activity as agonists
